Results reported in ChEMBL document CHEMBL3853302, “Anti-inflammatory and Quinone Reductase Inducing Compounds from Fermented Noni (Morinda citrifolia) Juice Exudates” (J Nat Prod, 2016).
Active and inactive are the calls of the source. No cut-off for these calls is given here.

Assays:
HEK293 = assay: Inhibition of TNF-alpha-activated NFkappaB (unknown origin) expressed in HEK293 cells at 50 uM after 6 hrs by luciferase reporter gene assay relative to control; format: cell-based; settings: Homo sapiens
[1] = Toxicity in HEK293 cells assessed as decrease in cell survival at 50 uM; format: cell-based; settings: human, hek293, 50 µM
[2] = Inhibition of TNF-alpha-activated NFkappaB (unknown origin) transfected in HEK293 cells after 6 hrs by luciferase reporter gene assay; format: cell-based; settings: Homo sapiens, HEK293, 6 h
[3] = Induction of quinone reductase-1 in mouse Hepa-1c1c7 cells assessed as reduction of 3-(4,5-dimethylthiazol-2-yl)-2,5-diphenyltetrazolium bromide at 50 uM after 48 hrs by crystal violet staining-based assay relative to control

Row | Compound | inhibition (HEK293) [%] | Activity [1] | fold change (FC) [3] | other results
1 | O=C1O[C@@H]2[C@@H](O)CO[C@]2(O)[C@@]1(O)C/C=C/c1ccc(O)c(O)c1 | 70 | Non-Toxic |  | 
2 | C[C@@H]1O[C@@H](OC[C@H]2O[C@@H](Oc3c(-c4ccc(O)cc4)oc4cc(O)cc(O)c4c3=O)[C@H](O)[C@@H](O)[C@@H]2O)[C@H](O)[C@H](O)[C@H]1O [NICOTIFLOROSIDE] | 62 | Non-Toxic |  | 
3 | Cc1ccc(S(=O)(=O)N[C@@H](Cc2ccccc2)C(=O)CCl)cc1 [TPCK] |  |  |  | IC50 [2]: 3.8 µM
4 | COC(=O)C1=CO[C@@H](O[C@@H]2O[C@H](CO)[C@@H](O)[C@H](O)[C@H]2O)[C@@H]2C(CO)=C[C@@H](O)[C@H]12 |  |  | 2.5 | 
5 | COc1cc2oc(=O)ccc2cc1O[C@@H]1O[C@H](CO)[C@@H](O)[C@H](O)[C@H]1O |  |  |  | Activity [3]: Active
6 | CCCCO[C@H]1C=C(CO)[C@H]2[C@H](O[C@@H]3O[C@H](CO)[C@@H](O)[C@H](O)[C@H]3O)OC=C(C(=O)O)[C@H]21 |  |  | 2.3 | 
